Test system: MV-4-11 cells
Assay: Gene expression microarray analysis (Affymetrix PrimeView) and GSEA
Type: cell-based, human
Set-up: RFU PODN (11730768_x_at) / Fold change /veh PODN (11730768_x_at) / RFU LINC00158 (11744669_a_at) / Fold change /veh LINC00158 (11744669_a_at) / RFU DUSP10 (11751237_a_at) / Fold change /veh DUSP10 (11751237_a_at) / RFU ID3 (11757404_x_at) / Fold change /veh ID3 (11757404_x_at) / RFU PLEKHG5 (11737974_s_at) / Fold change /veh PLEKHG5 (11737974_s_at) / RFU LRRC4B (11730491_at) / Fold change /veh LRRC4B (11730491_at) / RFU GIMAP4 (11747438_a_at) / Fold change /veh GIMAP4 (11747438_a_at) / RFU KRT8 (11758183_x_at) / Fold change /veh KRT8 (11758183_x_at) / RFU CNN1 (11734310_a_at) / Fold change /veh CNN1 (11734310_a_at) / RFU VPS37D (11726825_at) / Fold change /veh VPS37D (11726825_at) / RFU C10orf10 (11716522_x_at) / Fold change /veh C10orf10 (11716522_x_at) / RFU KIR2DL2 /// KIR2DL4 /// KIR2DL5A /// KIR2DL5B /// KIR2DS1 /// KIR2DS2 /// KIR2DS3 /// KIR2DS4 /// KIR3DL3 /// KIR3DL3 /// KIR3DS1 (11738374_at) / Fold change /veh KIR2DL2 /// KIR2DL4 /// KIR2DL5A /// KIR2DL5B /// KIR2DS1 /// KIR2DS2 /// KIR2DS3 /// KIR2DS4 /// KIR3DL3 /// KIR3DL3 /// KIR3DS1 (11738374_at) / RFU C1QL1 (11718748_at) / Fold change /veh C1QL1 (11718748_at) / RFU TMPRSS4 (11747572_a_at) / Fold change /veh TMPRSS4 (11747572_a_at) / RFU HAMP (11756126_x_at) / Fold change /veh HAMP (11756126_x_at) / RFU RNFT2 (11725882_a_at) / Fold change /veh RNFT2 (11725882_a_at) / RFU NR4A2 (11747474_a_at) / Fold change /veh NR4A2 (11747474_a_at) / RFU ABCC12 (11746883_a_at) / Fold change /veh ABCC12 (11746883_a_at) / RFU TMEM136 (11760407_x_at) / Fold change /veh TMEM136 (11760407_x_at) / RFU CLDN22 /// WWC2 (11732394_at) / Fold change /veh CLDN22 /// WWC2 (11732394_at) / RFU HLA-DPB1 (11760878_x_at) / Fold change /veh HLA-DPB1 (11760878_x_at) / RFU SPINT1 (11716480_a_at) / Fold change /veh SPINT1 (11716480_a_at) / RFU GAP43 (11754022_s_at) / Fold change /veh GAP43 (11754022_s_at) / RFU A4GNT (11735810_at) / Fold change /veh A4GNT (11735810_at) / RFU PRB3 (11715151_x_at) / Fold change /veh PRB3 (11715151_x_at) / RFU TUBB4B (11761932_at) / Fold change /veh TUBB4B (11761932_at) / RFU CAPN14 (11732068_a_at) / Fold change /veh CAPN14 (11732068_a_at) / RFU TMCC2 (11721928_a_at) / Fold change /veh TMCC2 (11721928_a_at) / RFU IRGQ (11745062_a_at) / Fold change /veh IRGQ (11745062_a_at) / RFU FAM174B (11720279_a_at) / Fold change /veh FAM174B (11720279_a_at) / RFU TMPRSS4 (11748680_a_at) / Fold change /veh TMPRSS4 (11748680_a_at) / RFU FAM212B (11763350_a_at) / Fold change /veh FAM212B (11763350_a_at) / RFU PLEKHG5 (11743358_a_at) / Fold change /veh PLEKHG5 (11743358_a_at) / RFU ZSCAN30 (11745921_a_at) / Fold change /veh ZSCAN30 (11745921_a_at) / RFU CMKLR1 (11741424_a_at) / Fold change /veh CMKLR1 (11741424_a_at) / RFU LOC101060620 /// MAPK8IP1 (11723275_at) / Fold change /veh LOC101060620 /// MAPK8IP1 (11723275_at) / RFU SPTSSB (11747773_x_at) / Fold change /veh SPTSSB (11747773_x_at) / RFU PRSS12 (11739890_at) / Fold change /veh PRSS12 (11739890_at) / RFU BIN1 (11741810_x_at) / Fold change /veh BIN1 (11741810_x_at) / RFU WNT11 (11732464_a_at) / Fold change /veh WNT11 (11732464_a_at) / RFU C10orf10 (11716521_a_at) / Fold change /veh C10orf10 (11716521_a_at) / RFU C5orf56 (11738089_at) / Fold change /veh C5orf56 (11738089_at) / RFU CYB561 (11721691_x_at) / Fold change /veh CYB561 (11721691_x_at) / RFU ANKRD19P (11752326_a_at) / Fold change /veh ANKRD19P (11752326_a_at) / RFU OR2T12 /// OR2T33 /// OR2T8 (11738714_s_at) / Fold change /veh OR2T12 /// OR2T33 /// OR2T8 (11738714_s_at) / RFU VCAN (11748164_a_at) / Fold change /veh VCAN (11748164_a_at) / RFU JSRP1 (11732532_at) / Fold change /veh JSRP1 (11732532_at) / RFU KRTAP10-11 (11738290_x_at) / Fold change /veh KRTAP10-11 (11738290_x_at) / RFU MYO3A (11730013_a_at) / Fold change /veh MYO3A (11730013_a_at) / RFU EBF3 (11725865_a_at) / Fold change /veh EBF3 (11725865_a_at) / RFU CAMK2N1 (11719241_x_at) / Fold change /veh CAMK2N1 (11719241_x_at) / RFU C5orf56 (11738088_a_at) / Fold change /veh C5orf56 (11738088_a_at) / RFU OLFML3 (11715873_a_at) / Fold change /veh OLFML3 (11715873_a_at) / RFU LOC100653217 /// NTM (11731650_a_at) / Fold change /veh LOC100653217 /// NTM (11731650_a_at) / RFU MAPK11 (11762145_a_at) / Fold change /veh MAPK11 (11762145_a_at) / RFU FIZ1 (11724087_x_at) / Fold change /veh FIZ1 (11724087_x_at) / RFU OASL (11726364_x_at) / Fold change /veh OASL (11726364_x_at) / RFU SOX15 (11748057_x_at) / Fold change /veh SOX15 (11748057_x_at) / RFU CD79A (11719716_a_at) / Fold change /veh CD79A (11719716_a_at) / RFU HIST1H1D (11736915_at) / Fold change /veh HIST1H1D (11736915_at) / RFU CASKIN2 (11723855_a_at) / Fold change /veh CASKIN2 (11723855_a_at) / RFU LOC730098 (11760151_x_at) / Fold change /veh LOC730098 (11760151_x_at) / RFU OR4N2 (11742367_at) / Fold change /veh OR4N2 (11742367_at) / RFU PRRT2 (11749266_a_at) / Fold change /veh PRRT2 (11749266_a_at) / RFU SNX32 (11753110_a_at) / Fold change /veh SNX32 (11753110_a_at) / RFU CDHR5 (11726645_a_at) / Fold change /veh CDHR5 (11726645_a_at) / RFU RCAN1 (11760418_a_at) / Fold change /veh RCAN1 (11760418_a_at) / RFU FAM167A (11723789_a_at) / Fold change /veh FAM167A (11723789_a_at) / RFU FAM26E (11764081_at) / Fold change /veh FAM26E (11764081_at) / RFU ISYNA1 (11749810_s_at) / Fold change /veh ISYNA1 (11749810_s_at) / RFU ACY1 (11761880_at) / Fold change /veh ACY1 (11761880_at) / RFU 11764098_at / Fold change /veh 11764098_at / RFU SAMD14 (11745864_x_at) / Fold change /veh SAMD14 (11745864_x_at) / RFU NPB (11741838_a_at) / Fold change /veh NPB (11741838_a_at) / RFU TMPRSS6 (11731388_a_at) / Fold change /veh TMPRSS6 (11731388_a_at) / RFU KRTAP10-2 (11738614_at) / Fold change /veh KRTAP10-2 (11738614_at) / RFU ARHGAP8 /// PRR5-ARHGAP8 (11727945_x_at) / Fold change /veh ARHGAP8 /// PRR5-ARHGAP8 (11727945_x_at) / RFU KRTAP5-7 /// NADSYN1 (11734609_at) / Fold change /veh KRTAP5-7 /// NADSYN1 (11734609_at) / RFU RASL12 (11751679_a_at) / Fold change /veh RASL12 (11751679_a_at) / RFU CDKN2B (11736163_a_at) / Fold change /veh CDKN2B (11736163_a_at) / RFU PRF1 (11729649_at) / Fold change /veh PRF1 (11729649_at) / RFU, ZNF638 /// ZNF638-IT1 / Fold change vs veh, ZNF638 /// ZNF638-IT1 / RFU, PANK3 / Fold change vs veh, PANK3 / RFU, SH3YL1 / Fold change vs veh, SH3YL1 / RFU, ZEB2 / Fold change vs veh, ZEB2 / RFU, NRIP1 / Fold change vs veh, NRIP1 / RFU, PTTG1IP / Fold change vs veh, PTTG1IP / RFU, CAPN2 / Fold change vs veh, CAPN2 / RFU, MED14 / Fold change vs veh, MED14 / RFU, SNORA58 / Fold change vs veh, SNORA58 / RFU, C1orf63 / Fold change vs veh, C1orf63 / RFU, LRRFIP1 / Fold change vs veh, LRRFIP1 / RFU, NDUFAF7 / Fold change vs veh, NDUFAF7 / RFU, SLC12A2 / Fold change vs veh, SLC12A2 / RFU, IBTK / Fold change vs veh, IBTK / RFU, ESF1 / Fold change vs veh, ESF1 / Fold change vs veh, TMEM50B / RFU, TAOK1 / Fold change vs veh, TAOK1 / RFU, ACBD3 / Fold change vs veh, ACBD3 / RFU, TMA16 / Fold change vs veh, TMA16 / RFU, RWDD3 / Fold change vs veh, RWDD3 / RFU, BCAT1 / Fold change vs veh, BCAT1 / RFU, EDEM3 / Fold change vs veh, EDEM3 / RFU, TMEM33 / Fold change vs veh, TMEM33 / RFU, WDR75 / Fold change vs veh, WDR75 / RFU, AHCTF1 / Fold change vs veh, AHCTF1 / RFU, TFRC / Fold change vs veh, TFRC / RFU, ZDHHC17 / Fold change vs veh, ZDHHC17 / RFU, NOM1 / Fold change vs veh, NOM1 / RFU, ARL8B / Fold change vs veh, ARL8B / RFU, ZBTB11 / Fold change vs veh, ZBTB11 / RFU, TAMM41 / Fold change vs veh, TAMM41 / RFU, KIAA1704 /// LOC100996395 / Fold change vs veh, KIAA1704 /// LOC100996395 / RFU, ING1 / Fold change vs veh, ING1 / RFU, TRMT61B / Fold change vs veh, TRMT61B / RFU, FUBP3 / Fold change vs veh, FUBP3 / RFU, TP53 / Fold change vs veh, TP53 / RFU, TNKS2 / Fold change vs veh, TNKS2 / RFU, ZFP14 / Fold change vs veh, ZFP14 / RFU, ACTR2 / Fold change vs veh, ACTR2 / RFU, PPP3R1 / Fold change vs veh, PPP3R1 / RFU, PIK3R1 / Fold change vs veh, PIK3R1 / RFU, HNRNPA1 / Fold change vs veh, HNRNPA1 / RFU, RNF170 / Fold change vs veh, RNF170 / RFU, ZNF28 / Fold change vs veh, ZNF28 / RFU, RNGTT / Fold change vs veh, RNGTT / RFU, OGT / Fold change vs veh, OGT / RFU, BRD1 / Fold change vs veh, BRD1 / RFU, MARS / Fold change vs veh, MARS / RFU, ZNF655 / Fold change vs veh, ZNF655 / RFU, FAHD1 / Fold change vs veh, FAHD1 / RFU, BDP1 / Fold change vs veh, BDP1 / RFU, LRRCC1 / Fold change vs veh, LRRCC1 / RFU, ARID1A / Fold change vs veh, ARID1A / RFU, ZNF146 / Fold change vs veh, ZNF146 / RFU, ZNF330 / Fold change vs veh, ZNF330 / RFU, GPN3 / Fold change vs veh, GPN3 / RFU, C9orf123 / Fold change vs veh, C9orf123 / RFU, N4BP2L2 / Fold change vs veh, N4BP2L2 / RFU, ARFIP1 / Fold change vs veh, ARFIP1 / RFU, FAM179B / Fold change vs veh, FAM179B / RFU, BCL10 / Fold change vs veh, BCL10 / RFU, UHRF1BP1L / Fold change vs veh, UHRF1BP1L / RFU, BET1 / Fold change vs veh, BET1 / RFU, CNOT2 / Fold change vs veh, CNOT2 / RFU, ZNF268 / Fold change vs veh, ZNF268 / Fold change vs veh, ZNF507 / RFU, DGCR2 / Fold change vs veh, DGCR2 / RFU, WDSUB1 / Fold change vs veh, WDSUB1 / Fold change vs veh, HSP90B1 /// MIR3652 / RFU, ADSS / Fold change vs veh, ADSS / RFU, GK / Fold change vs veh, GK / RFU, ZNF148 / Fold change vs veh, ZNF148 / RFU, TAF9 / Fold change vs veh, TAF9 / RFU, SLC1A5 / Fold change vs veh, SLC1A5 / RFU, SLMO2 / Fold change vs veh, SLMO2 / RFU, ABCC4 / Fold change vs veh, ABCC4 / RFU, LOC101060439 /// RAP1B / Fold change vs veh, LOC101060439 /// RAP1B / RFU, RFX7 / Fold change vs veh, RFX7 / RFU, GTPBP10 / Fold change vs veh, GTPBP10 / RFU, CNEP1R1 / Fold change vs veh, CNEP1R1 / RFU, BIVM-ERCC5 /// ERCC5 / Fold change vs veh, BIVM-ERCC5 /// ERCC5 / RFU, ILF3 / Fold change vs veh, ILF3 / RFU 11762660_at / Fold change /veh 11762660_at / RFU VCAN (11757783_s_at) / Fold change /veh VCAN (11757783_s_at) / RFU DDX43 (11728927_at) / Fold change /veh DDX43 (11728927_at) / RFU KRT8 (11758188_x_at) / Fold change /veh KRT8 (11758188_x_at) / RFU NKD1 (11759106_at) / Fold change /veh NKD1 (11759106_at) / RFU SRD5A1 (11742802_a_at) / Fold change /veh SRD5A1 (11742802_a_at) / RFU TPSAB1 /// TPSB2 (11721975_s_at) / Fold change /veh TPSAB1 /// TPSB2 (11721975_s_at) / RFU GSTM3 (11746129_a_at) / Fold change /veh GSTM3 (11746129_a_at) / RFU IL23R (11737362_x_at) / Fold change /veh IL23R (11737362_x_at) / RFU TMEM51 (11727254_a_at) / Fold change /veh TMEM51 (11727254_a_at) / RFU PIWIL2 (11732686_x_at) / Fold change /veh PIWIL2 (11732686_x_at) / RFU ORM1 (11744905_x_at) / Fold change /veh ORM1 (11744905_x_at) / RFU CCDC152 (11743942_at) / Fold change /veh CCDC152 (11743942_at) / RFU ECM1 (11717891_a_at) / Fold change /veh ECM1 (11717891_a_at) / RFU IL23R (11748794_a_at) / Fold change /veh IL23R (11748794_a_at) / RFU TNFAIP8L3 (11732012_x_at) / Fold change /veh TNFAIP8L3 (11732012_x_at) / RFU MBOAT4 (11741988_at) / Fold change /veh MBOAT4 (11741988_at) / RFU 11764193_at / Fold change /veh 11764193_at / RFU TMEM53 (11763286_at) / Fold change /veh TMEM53 (11763286_at) / RFU MAGEB2 (11727129_at) / Fold change /veh MAGEB2 (11727129_at) / RFU TMEM200A (11744735_a_at) / Fold change /veh TMEM200A (11744735_a_at) / RFU CCDC152 (11751479_a_at) / Fold change /veh CCDC152 (11751479_a_at) / RFU FAM211A (11726209_a_at) / Fold change /veh FAM211A (11726209_a_at) / RFU RGS16 (11746705_a_at) / Fold change /veh RGS16 (11746705_a_at) / RFU VCAN (11755009_s_at) / Fold change /veh VCAN (11755009_s_at) / RFU RHOB (11743442_s_at) / Fold change /veh RHOB (11743442_s_at) / RFU RGS16 (11720943_a_at) / Fold change /veh RGS16 (11720943_a_at) / RFU RGS16 (11720944_at) / Fold change /veh RGS16 (11720944_at) / RFU, VPS4B / Fold change vs veh, VPS4B / RFU, CREB1 / Fold change vs veh, CREB1 / RFU, DNAJC13 / Fold change vs veh, DNAJC13 / RFU, GNAQ / Fold change vs veh, GNAQ / RFU, CDK5R1 / Fold change vs veh, CDK5R1 / RFU, ZRANB3 / Fold change vs veh, ZRANB3 / RFU, CUL4A / Fold change vs veh, CUL4A / RFU, CCNY / Fold change vs veh, CCNY / RFU, UFL1 / Fold change vs veh, UFL1 / RFU, COG3 / Fold change vs veh, COG3 / RFU, DIAPH2 / Fold change vs veh, DIAPH2 / RFU, SKA2 / Fold change vs veh, SKA2 / RFU, AFF3 / Fold change vs veh, AFF3 / RFU, LMF1 / Fold change vs veh, LMF1 / RFU, IPO11 / Fold change vs veh, IPO11 / RFU, DFFB / Fold change vs veh, DFFB / RFU, FOXP1 / Fold change vs veh, FOXP1 / RFU, CARD8 / Fold change vs veh, CARD8 / RFU, STRN3 / Fold change vs veh, STRN3 / RFU, ADK / Fold change vs veh, ADK / RFU, RASSF2 / Fold change vs veh, RASSF2 / RFU, WIPF1 / Fold change vs veh, WIPF1 / RFU, LARP1B / Fold change vs veh, LARP1B / RFU, RASA1 / Fold change vs veh, RASA1 / RFU, RB1 / Fold change vs veh, RB1 / RFU, PPFIA1 / Fold change vs veh, PPFIA1 / RFU, MAT2A / Fold change vs veh, MAT2A / RFU, CCT5 / Fold change vs veh, CCT5 / RFU, WDR92 / Fold change vs veh, WDR92 / RFU, CUX1 / Fold change vs veh, CUX1 / RFU, TTC7A / Fold change vs veh, TTC7A / RFU, TMEM135 / Fold change vs veh, TMEM135 / RFU, DEPTOR / Fold change vs veh, DEPTOR / RFU, CPM / Fold change vs veh, CPM / RFU, DNAJB6 / Fold change vs veh, DNAJB6 / RFU, CACNA2D3 / Fold change vs veh, CACNA2D3 / RFU, DTX4 / Fold change vs veh, DTX4 / RFU, TFCP2 / Fold change vs veh, TFCP2 / RFU, GMCL1 /// GMCL1P1 / Fold change vs veh, GMCL1 /// GMCL1P1 / RFU, AEBP2 / Fold change vs veh, AEBP2 / RFU, SNHG1 /// SNORD22 /// SNORD25 /// SNORD26 /// SNORD27 /// SNORD28 /// SNORD29 /// SNORD31 / Fold change vs veh, SNHG1 /// SNORD22 /// SNORD25 /// SNORD26 /// SNORD27 /// SNORD28 /// SNORD29 /// SNORD31 / Fold change (Aza/veh), C12orf56 (ProbeSet 11735607_a_at) / Fold change (ACY-1035/veh), C12orf56 (ProbeSet 11735607_a_at) / Fold change (Aza/veh), FGFR1OP (ProbeSet 11751329_s_at) / Fold change (ACY-1035/veh), FGFR1OP (ProbeSet 11751329_s_at) / Fold change (Aza/veh), VPS36 (ProbeSet 11739960_a_at) / Fold change (ACY-1035/veh), VPS36 (ProbeSet 11739960_a_at) / RFU SYPL1 (11715823_x_at) / Fold change /veh SYPL1 (11715823_x_at) / RFU IGFBP7 (11715501_s_at) / Fold change /veh IGFBP7 (11715501_s_at) / RFU REEP3 (11722064_at) / Fold change /veh REEP3 (11722064_at) / RFU IGLL1 (11728026_x_at) / Fold change /veh IGLL1 (11728026_x_at): dose or concentration left out as unconfirmed
Settings: MV-4-11 cells, 48 hours

## Nc1ccc(-c2cccs2)cc1NC(=O)c1ccc2c(c1)cc(C1CC1)n2CCN1CCOCC1 [ACY-1035]
  RFU VCAN (11757783_s_at): 8.50 RFU

Reference: article PMC5218480 (PLoS ONE, 2017)
